Test results published in PMC7933930, “Development of a small molecule that corrects misfolding and increases secretion of Z α1‐antitrypsin” (EMBO Molecular Medicine, 2021).

Tests used:
NaV1.5 = NaV1.5 (Homo sapiens, UniProt Q14524); experiment: Off‐target panel: NaV1.5 (IonWorks); format: cell-based
Experimental: (§1) GSK716 selectivity and PK properties were profiled in order to investigate the suitability of GSK716 for progression into in vivo studies and the potential for taking it forward as a clinical candidate for testing in humans. Since GSK716 results in loss of inhibitory activity of α1‐antitrypsin, the effect of the compound was assessed on other closely related serpins. […] Furthermore, there were no off‐target effects in a panel of assays considered predictive of known safety liabilities that precluded further development of GSK716 (Table EV1).

Serotonin transporter = Serotonin transporter (Homo sapiens, UniProt P31645); experiment: Off‐target panel: Serotonin transporter; format: cell-based
Chain of Serotonin transporter (P31645 whole entry): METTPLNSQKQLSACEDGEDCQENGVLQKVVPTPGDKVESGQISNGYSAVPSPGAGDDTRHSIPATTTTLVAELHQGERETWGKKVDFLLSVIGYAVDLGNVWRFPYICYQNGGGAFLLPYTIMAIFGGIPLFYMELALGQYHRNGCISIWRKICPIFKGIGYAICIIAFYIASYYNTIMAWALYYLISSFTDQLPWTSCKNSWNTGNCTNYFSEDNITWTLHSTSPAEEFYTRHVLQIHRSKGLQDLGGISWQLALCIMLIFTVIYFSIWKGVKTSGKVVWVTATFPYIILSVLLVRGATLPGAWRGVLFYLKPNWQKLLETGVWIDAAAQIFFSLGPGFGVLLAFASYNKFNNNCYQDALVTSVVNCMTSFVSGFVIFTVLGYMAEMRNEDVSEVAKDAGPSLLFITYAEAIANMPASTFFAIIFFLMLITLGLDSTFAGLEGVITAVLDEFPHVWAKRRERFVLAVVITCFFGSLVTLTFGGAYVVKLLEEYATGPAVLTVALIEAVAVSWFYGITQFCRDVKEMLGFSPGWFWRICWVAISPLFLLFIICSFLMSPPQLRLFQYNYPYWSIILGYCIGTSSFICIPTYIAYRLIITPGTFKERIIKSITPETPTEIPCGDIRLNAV
Experimental: as §1

M and Z α1‐antitrypsin = experiment: Heat‐induced oligomerisation, constant temperature, non‐denaturing PAGE; format: biochemical, human; settings: constant‐temperature experiment, 4 h, 48 to 65°C
Text: Polymerisation of α1‐antitrypsin involves transition through a transient intermediate state known as M*, that is readily populated by the Z variant (Dafforn et al, 1999; Knaupp et al, 2010). The M* conformational ensemble appears to be a distinct species between the native state conformation and that of the final polymer. One of the hallmarks of M* is its recognition by environment‐sensitive fluorescent reporter dyes. Thermal shift assays that make use of the dye SYPRO Orange report the stability of the protein native state against heat‐induced unfolding. […] Native state stability can also be probed by equilibrium unfolding using chemical denaturants, where a peak in bis‐ANS fluorescence corresponds with a maximally populated unfolding intermediate (James & Bottomley, 1998). […] The association of GSK716 induced a marked quenching and blue‐shift of the α1‐antitrypsin intrinsic tryptophan fluorescence spectrum (Fig 4D, inset). The rate of change in fluorescence during association of 10µM GSK716 was proportional to the propensity of α1‐antitrypsin mutants to form polymers in vivo: inert (M), mild (S), moderate (Baghdad) and severe (Z) α1‐antitrypsin (Fig 4D, top and bottom). […]

[1] = test system: Z α1‐antitrypsin polymers; experiment: Liver polymer load in Z α1‐antitrypsin transgenic mice (2C1 immunohistochemistry); format: in vivo, mouse; settings: 100 mg/kg three times a day for 20 days, versus vehicle
Experimental: Since GSK716 blocks polymer formation in cells, we explored the effect of dosing GSK716 on liver polymer levels. […] GSK716 was dosed at 100 mg/kg three times a day for 20 days. […] Liver polymer levels were investigated by staining with 2C1 anti‐polymer monoclonal antibody and were scored blind by a pathologist or by quantification using an algorithm to measure all areas of positive staining (Fig EV1). There was no difference observed in total liver polymer load when assessed by manual or quantitative scoring (Fig 6B and C). There was no significant fibrosis in any of the liver sections. Intrahepatic α1‐antitrypsin was also assessed by ELISA. […] Treatment with GSK716 increased the monomer measured in liver homogenate by approx. fourfold in keeping with the changes seen in blood.
Formalin‐fixed, paraffin‐embedded livers from all mice were sectioned and stained with haematoxylin and eosin (H&E) and periodic acid Schiff (PAS) with diastase to examine tissue quality and the presence of diastase‐resistant polymer inclusions, respectively. […] Representative sections of liver from each mouse were blindly evaluated by a Board‐Certified Veterinary Pathologist and ranked in order of polymer content. A semi‐automated image analysis solution was developed to quantify total polymer content (Fig EV1). […]

serum albumin = experiment: Circulating serum albumin in Z α1‐antitrypsin transgenic mice; format: in vivo, mouse; settings: after 5 days of dosing
Experimental: A significant fraction of the total Z α1‐antitrypsin in the circulation is in the polymeric conformation (Tan et al, 2014). There are no antibodies that are specific for monomeric Z α1‐antitrypsin and so to directly determine its concentration, a deconvolution method was developed based on immunoassays with antibodies for either total or polymeric α1‐antitrypsin, and calibration curves with purified monomeric and polymeric Z α1‐antitrypsin. Monomeric Z α1‐antitrypsin was measured in plasma samples following 6 days of dosing, and levels were normalised to each animals’ pre‐dose control levels to account for the natural variation of Z α1‐antitrypsin between animals. […] Total drug levels and changes in Z α1‐antitrypsin following 3 days of dosing were indistinguishable from those following 6 days of dosing. There was no effect on circulating serum albumin after 5 days of dosing which provides evidence that GSK716 is specific for Z α1‐antitrypsin. Moreover, the effects are not mediated by metabolites of GSK716 as the major metabolites have much reduced or no binding to α1‐antitrypsin.

Dopamine D1 = Dopamine D1 (Homo sapiens, UniProt P21728); experiment: Off‐target panel: Dopamine D1 (DRX); format: cell-based
Chain of Dopamine D1 (P21728 whole entry): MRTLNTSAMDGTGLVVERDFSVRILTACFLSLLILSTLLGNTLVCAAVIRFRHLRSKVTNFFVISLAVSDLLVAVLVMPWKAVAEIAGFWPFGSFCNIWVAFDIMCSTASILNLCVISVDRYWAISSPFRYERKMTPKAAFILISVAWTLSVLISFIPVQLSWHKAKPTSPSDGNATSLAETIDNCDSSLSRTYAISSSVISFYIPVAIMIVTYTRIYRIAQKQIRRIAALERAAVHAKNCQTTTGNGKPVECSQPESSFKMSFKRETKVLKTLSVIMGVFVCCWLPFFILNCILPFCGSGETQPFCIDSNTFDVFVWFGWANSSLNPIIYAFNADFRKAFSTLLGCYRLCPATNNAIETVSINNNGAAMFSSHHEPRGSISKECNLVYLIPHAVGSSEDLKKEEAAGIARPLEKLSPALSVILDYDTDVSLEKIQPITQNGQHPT
Experimental: as §1

Chain of NaV1.5 (Q14524 whole entry): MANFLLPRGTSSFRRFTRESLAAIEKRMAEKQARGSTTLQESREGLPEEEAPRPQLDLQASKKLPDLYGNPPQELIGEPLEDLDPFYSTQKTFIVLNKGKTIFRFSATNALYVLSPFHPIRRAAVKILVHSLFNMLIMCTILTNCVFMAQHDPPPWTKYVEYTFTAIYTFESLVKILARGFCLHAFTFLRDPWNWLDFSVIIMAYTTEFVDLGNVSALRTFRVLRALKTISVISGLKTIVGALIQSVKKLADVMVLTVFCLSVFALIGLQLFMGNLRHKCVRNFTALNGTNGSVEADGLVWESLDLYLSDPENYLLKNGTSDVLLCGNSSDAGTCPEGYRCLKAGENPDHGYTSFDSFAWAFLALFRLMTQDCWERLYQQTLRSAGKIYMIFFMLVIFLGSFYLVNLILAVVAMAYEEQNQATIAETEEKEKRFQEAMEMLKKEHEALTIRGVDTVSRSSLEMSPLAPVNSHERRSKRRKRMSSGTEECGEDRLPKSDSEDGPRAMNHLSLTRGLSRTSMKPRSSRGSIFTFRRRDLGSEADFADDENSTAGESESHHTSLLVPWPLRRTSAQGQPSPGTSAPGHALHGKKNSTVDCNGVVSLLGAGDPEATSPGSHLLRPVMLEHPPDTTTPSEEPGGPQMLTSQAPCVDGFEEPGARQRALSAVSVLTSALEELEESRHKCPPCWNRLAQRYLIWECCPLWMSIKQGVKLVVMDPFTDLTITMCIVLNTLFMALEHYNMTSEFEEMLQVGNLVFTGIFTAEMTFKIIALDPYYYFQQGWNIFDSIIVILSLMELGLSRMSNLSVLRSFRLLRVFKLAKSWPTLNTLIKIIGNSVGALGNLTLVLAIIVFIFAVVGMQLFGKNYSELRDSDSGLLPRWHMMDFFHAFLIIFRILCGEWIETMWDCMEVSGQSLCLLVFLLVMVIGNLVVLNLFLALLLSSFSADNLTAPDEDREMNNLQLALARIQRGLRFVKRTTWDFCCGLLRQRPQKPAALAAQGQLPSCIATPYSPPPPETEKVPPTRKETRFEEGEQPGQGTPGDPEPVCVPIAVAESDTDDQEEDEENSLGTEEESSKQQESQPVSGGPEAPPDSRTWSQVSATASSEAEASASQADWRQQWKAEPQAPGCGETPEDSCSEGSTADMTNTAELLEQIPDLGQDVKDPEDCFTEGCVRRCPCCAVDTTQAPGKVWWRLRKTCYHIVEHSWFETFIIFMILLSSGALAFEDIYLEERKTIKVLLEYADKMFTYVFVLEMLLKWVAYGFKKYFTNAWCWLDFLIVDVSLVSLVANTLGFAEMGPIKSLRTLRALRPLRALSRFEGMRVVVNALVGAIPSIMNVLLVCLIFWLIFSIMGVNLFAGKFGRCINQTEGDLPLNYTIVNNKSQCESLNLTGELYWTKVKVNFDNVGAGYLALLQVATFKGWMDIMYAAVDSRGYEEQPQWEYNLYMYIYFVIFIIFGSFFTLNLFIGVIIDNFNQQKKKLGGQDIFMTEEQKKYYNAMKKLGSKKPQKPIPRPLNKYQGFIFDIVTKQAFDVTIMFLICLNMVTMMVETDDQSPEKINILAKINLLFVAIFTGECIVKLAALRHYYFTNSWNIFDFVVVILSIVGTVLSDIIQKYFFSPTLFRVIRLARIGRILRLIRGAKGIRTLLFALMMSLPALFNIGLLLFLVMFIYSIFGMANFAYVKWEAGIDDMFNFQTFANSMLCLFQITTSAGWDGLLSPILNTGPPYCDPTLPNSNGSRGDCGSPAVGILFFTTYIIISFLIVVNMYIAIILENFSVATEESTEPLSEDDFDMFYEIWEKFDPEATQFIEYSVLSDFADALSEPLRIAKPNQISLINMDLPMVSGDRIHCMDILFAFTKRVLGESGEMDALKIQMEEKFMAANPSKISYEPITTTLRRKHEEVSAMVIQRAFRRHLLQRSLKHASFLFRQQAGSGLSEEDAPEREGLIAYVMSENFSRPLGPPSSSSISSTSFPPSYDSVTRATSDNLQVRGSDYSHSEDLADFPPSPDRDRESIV

Structure (SMILES): CCC[C@@H](NC(=O)c1cccc2c1CC(=O)N2)[C@@H](O)c1cccc(F)c1C [GSK716]
- IC50 (NaV1.5): 79.4 µM
- IC50 (Serotonin transporter): > 100 µM
- temperature of oligomer generation (M and Z α1‐antitrypsin): oligomers were generated at higher temperatures in the presence of the compound than in its absence
- total liver polymer load (manual or quantitative scoring of 2C1 staining) [1]: no difference
- effect on circulating serum albumin (serum albumin): no effect
- IC50 (Dopamine D1): > 100 µM
